Test results from ChEMBL document CHEMBL1154817, “Tartrolon D, a cytotoxic macrodiolide from the marine-derived actinomycete Streptomyces sp. MDG-04-17-069” (J Nat Prod, 2009).
Values after ≈ are worked out from the molar mass of the structure shown.

Legend:
[1] = system: HT-29; test: Cytotoxicity against human HT-29 cells after 72 hrs by sulforhodamine B assay; format: functional; details: HT-29, 72 h
[2] = system: MDA-MB-231; test: Cytotoxicity against human MDA-MB-231 cells after 72 hrs by sulforhodamine B assay; format: functional; details: MDA-MB-231, 72 h
[3] = system: A549; test: Cytotoxicity against human A549 cells after 72 hrs by sulforhodamine B assay; format: functional; details: A549, 72 h
[4] = Inhibition of hypoxia-induced HIF1 transcriptional activity
[5] = system: L929; test: Cytotoxicity against mouse L929 cells; format: functional

Structure (SMILES) | GI50 [1] [nM] | LC50 (concentration killing 50% of cells) [1] [nM] | TGI [1] [nM] | GI50 [2] [nM] | LC50 (50% lethal concentration) [2] [nM] | TGI [2] [nM] | GI50 [3] [nM] | LC50 [3] [nM] | TGI [3] [nM] | IC50 [4] [µg/mL] | MIC [5] [µg/mL]
C[C@@H]1CC[C@H]2CC(=O)C[C@@H](O)CC/C=C/C=C\CC[C@H](C)OC(=O)C(O)[C@]3(O)O[C@@H](CC[C@H]3C)CC(=O)C[C@@H](O)CC/C=C/C=C\CC[C@H](C)OC(=O)C(O)[C@]1(O)O2 (some centres not stated) [TARTROLON D] | 310 | 8410 | 1710 | 790 | 11000 | 3410 | 160 | 8050 | 1460 | – | –
C[C@@H]1C(=O)C[C@@H](O)CC/C=C/C=C\CC[C@H](C)OC(=O)[C@@H]2O[B-]34O[C@@H](C(=O)O[C@@H](C)CC/C=C\C=C\CC[C@H](O)CC(=O)[C@@H](C)[C@@H]5CC[C@](C)(O)[C@]2(O5)O3)[C@@]2(O[C@H]1CC[C@]2(C)O)O4 [TARTROLON C] | – | – | – | – | – | – | – | – | – | 0.17 | –
C[C@@H]1C(=O)C[C@@H](O)CC/C=C/C=C\CC[C@H](C)OC(=O)C(O)[C@]2(O)O[C@@H](CC[C@H]2C)[C@H](C)C(=O)C[C@@H](O)CC/C=C/C=C\CC[C@H](C)OC(=O)C(O)[C@]2(O)O[C@H]1CC[C@H]2C (some centres not stated) [TARTROLON A] | – | – | – | – | – | – | – | – | – | – | 70 (≈ 82.4 µM)
COc1cccc2c1C(=O)c1c(O)c3c(c(O)c1C2=O)C[C@@](O)(C(C)=O)C[C@@H]3O[C@H]1C[C@H](N)[C@H](O)[C@H](C)O1 [DAUNORUBICIN] | 70 | – | 330 | 20 | – | 120 | 80 | – | 170 | – | –
